Experimental findings from patent publication US10065990B2, “Cyclic peptide compound, and preparation method, pharmaceutical composition and use thereof” (HANGZHOU GUANYU BIO-MEDICAL CO., LTD, priority 2013, dated 2018) are described below.

Where two headings read alike, the source gives them in different places.

One assay deals with HDAC2 (Homo sapiens, UniProt Q92769). Briefly: HDAC biochemical activity measurement (fluorescent substrate deacetylation). The note with it: 37° C. 30 minutes.
Assay [1] has as its system A549 (human lung cancer cells). Description: MTT cancer cell growth inhibition. It counts as cell-based. The conditions noted are these: Homo sapiens, A549, 72 h, MTT. An outline of the steps:
(§1)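 MTT viability, 570 nm, GI50. Cells 1500/well; compound 72 h at final 10^−5–10^−10 M in triplicate.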

Assay [2] deals with Bel-7402 (human hepatoma cells). Briefly: MTT cancer cell growth inhibition. The note with it: Homo sapiens, Bel-7402, 72 h, MTT, 72 hours incubation, Bel-7402 cells; read-out: GI50 Bel-7402. The format is cell-based. An outline of the steps:
as §1

The subject of assay [3] is DU145 (human prostate cancer cells). Description: MTT cancer cell growth inhibition. The note with it: Homo sapiens, DU-145, 72 h, MTT. The format is cell-based. An outline of the steps: as §1
Assay [4] concerns H1975 (non-small cell lung adenocarcinoma). Briefly: MTT cancer cell growth inhibition. The note with it: Homo sapiens, NCI-H1975, 72 h, MTT, 72 hours incubation, H1975 cells; read-out: GI50 H1975. It counts as cell-based. An outline of the steps:
as §1

Assay [5] relates to HCC827 (human non-small cell lung cancer cells). Briefly: MTT cancer cell growth inhibition. The format is cell-based. The note with it: Homo sapiens, HCC827, 72 h, MTT, 72 hours incubation, HCC827 cells; read-out: GI50 HCC827. An outline of the steps:
as §1

Assay [6] has as its system K562 (human leukemia cells). Briefly: MTT cancer cell growth inhibition. It counts as cell-based. The note with it: Homo sapiens, K562, 72 h, MTT, 72 hours incubation, K562 cells; read-out: GI50 K562. An outline of the steps:
as §1

In assay [7] the test system is MCF-7 (human breast cancer cells). Description: MTT cancer cell growth inhibition. The conditions noted are these: Homo sapiens, MCF7, 72 h. It counts as cell-based. A digest of the protocol: as §1
Assay [8] relates to MOLT-4 (human acute lymphoblastic leukemia cells). Briefly: MTT cancer cell growth inhibition. It counts as cell-based. The note with it: Homo sapiens, MOLT-4, 72 h, MTT. A digest of the protocol: as §1
Assay [9] deals with PANC-1 (Pac-1, human pancreatic cancer cells). Briefly: MTT cancer cell growth inhibition. The format is cell-based. The conditions noted are these: Homo sapiens, PANC-1, 72 h, MTT. A digest of the protocol:
as §1

The test system of assay [10] is U937 (human leukemia cells). Briefly: MTT cancer cell growth inhibition. It counts as cell-based. The note with it: Homo sapiens, U-937, 72 h, MTT. An outline of the steps:
as §1

Assay [11] relates to lncap (prostate cancer cells). Description: MTT cancer cell growth inhibition. It counts as cell-based. The conditions noted are these: Homo sapiens, LNCaP, 72 h, MTT. An outline of the steps: as §1
For a further assay, the target named is T1, HDAC11 (Homo sapiens, UniProt Q96DB2).
T1 sequence (Q96DB2 1-347): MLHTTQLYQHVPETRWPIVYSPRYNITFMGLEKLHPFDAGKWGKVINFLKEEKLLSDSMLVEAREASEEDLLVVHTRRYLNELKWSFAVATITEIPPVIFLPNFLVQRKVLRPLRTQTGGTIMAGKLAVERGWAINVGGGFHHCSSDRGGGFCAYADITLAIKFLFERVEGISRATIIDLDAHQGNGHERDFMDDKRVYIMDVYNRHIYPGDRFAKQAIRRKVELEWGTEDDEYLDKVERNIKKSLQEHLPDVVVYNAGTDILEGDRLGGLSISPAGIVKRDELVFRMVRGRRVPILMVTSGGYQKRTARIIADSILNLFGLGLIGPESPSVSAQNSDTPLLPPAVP
Briefly: HDAC biochemical activity measurement (fluorescent substrate deacetylation).

[12] abbreviates: 72 hours incubation, read-out: GI50 A54.
Setting [13] is: 72 hours incubation, read-out: GI50 Du1.
The mark [14] stands for this setting: 72 hours incubation, read-out: GI50 MCF.
Where [15] appears, read: 72 hours incubation, read-out: GI50 Mol.
The mark [16] stands for this setting: 72 hours incubation, read-out: GI50 PAN.
Where [17] appears, read: 72 hours incubation, read-out: GI50 U93.
Setting [18] is: 72 hours incubation, read-out: GI50 lnca.
The mark [19] stands for this setting: A549 cells, 72 hours incubation, read-out: GI50 A54.
Setting [20] is: 72 hours, present invention, read-out: GI50 A549, a.
The mark [21] stands for this setting: 72 hours, present invention, read-out: GI50 Du145, a.
The mark [22] stands for this setting: 72 hours, present invention, read-out: GI50 MCF7, a.
Where [23] appears, read: MCF-7 cells, 72 hours incubation, read-out: GI50 MCF.
Where [24] appears, read: 72 hours, present invention, read-out: GI50 Molt-4, a.
Where [25] appears, read: 72 hours, present invention, read-out: GI50 PANC-1, a.
The mark [26] stands for this setting: PANC-1 cells, 72 hours incubation, read-out: GI50 PAN.
Setting [27] is: 72 hours, present invention, read-out: GI50 U937, a.
[28] abbreviates: 72 hours, present invention, read-out: GI50 lncap, a.
The mark [29] stands for this setting: lncap cells, 72 hours incubation, read-out: GI50 lnca.
Where [30] appears, read: DU145 cells, 72 hours incubation, read-out: GI50 Du1.
The mark [31] stands for this setting: MOLT-4 cells, 72 hours incubation, read-out: GI50 Mol.
[32] abbreviates: U937 cells, 72 hours incubation, read-out: GI50 U93.
The mark [33] stands for this setting: read-out: IC50 HDAC11, HDAC11, 37° C. 30 minutes.

Sequence of HDAC2 (Q92769 whole entry, species assumed): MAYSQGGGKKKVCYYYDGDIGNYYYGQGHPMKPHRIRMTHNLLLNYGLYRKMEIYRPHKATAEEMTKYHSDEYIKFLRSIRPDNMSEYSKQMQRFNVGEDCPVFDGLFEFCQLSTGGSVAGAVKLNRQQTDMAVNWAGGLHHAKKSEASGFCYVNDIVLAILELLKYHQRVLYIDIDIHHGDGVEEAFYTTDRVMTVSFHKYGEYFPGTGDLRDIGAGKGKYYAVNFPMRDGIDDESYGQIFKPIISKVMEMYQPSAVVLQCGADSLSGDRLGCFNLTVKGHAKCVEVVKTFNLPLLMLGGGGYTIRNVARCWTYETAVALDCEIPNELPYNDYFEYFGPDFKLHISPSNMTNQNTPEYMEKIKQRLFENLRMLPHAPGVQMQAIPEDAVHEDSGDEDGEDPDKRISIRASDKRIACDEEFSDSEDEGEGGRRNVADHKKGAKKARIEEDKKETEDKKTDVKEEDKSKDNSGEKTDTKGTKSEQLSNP
Protocol for HDAC2: The chemical activity of the compound is determined according to the degree of deacetylation inhibition of the HDAC enzyme. This experiment measured the degree of deacetylation related to tumor proliferation and metastasis of HDAC1, HDAC2, HDAC3, HDAC8, HDAC11 five subtypes HDAC enzymes. After the substrate containing an acetylated lysine side chain and HDAC enzyme are labeled with a fluorescent label, the fluorescent substrate is de acetyl. The fluorescent labeled substrate is cleaved by the enzyme, and the fluorescent substance is released, which generates 460 nm emission light under the excitation of 360 nm light.
HDAC substrate was diluted with reaction buffer to 200M (reaction concentration of 20M), the HDAC enzyme was diluted to the appropriate concentration, then added different concentrations of the test compounds and acted at 37° C. 30 minutes, and then added the same volume of 2-times concentration substrate developing solution (developer), incubated at room temperature for 15 minutes.

The IC50 is the concentration at which inhibition is half-maximal. The GI50 is the concentration giving 50% growth inhibition. For `C/C=C1\NC(=O)c2cccc(n2)CNC(=O)C[C@@H](/C=C/CCS)OC(=O)[C@@H](C)NC1=O` [Compound 145], the IC50 against HDAC2 was 29 nM; against HDAC11, 83 nM. The GI50 was 70 nM in [1] (setting [12]); 18 nM in [2]; 60 nM in assay [3] (setting [13]); 31 nM in assay [4]; 78 nM in assay [5]; 32 nM in assay [6]. Also, the GI50 came out at 60 nM in assay [7] (setting [14]); 100 nM in assay [8] (setting [15]); 60 nM in [9] (setting [16]); 70 nM in assay [10] (setting [17]); 40 nM in assay [11] (setting [18]).
In the case of `C/C=C1\NC(=O)c2cccc(n2)CNC(=O)C[C@@H](/C=C/CCSC(=O)CCCCCCC)OC(=O)[C@H](CC(C)C)NC1=O` [Compound 241], the IC50 against HDAC2 worked out at 36 nM; against HDAC11, 69 nM. The GI50 in [1] (setting [19]) came out at 110 nM; in assay [1] (setting [20]), 110 nM; in assay [2], 47 nM; in assay [3] (setting [21]), 3 nM; in [4], 51 nM; in assay [5], 34 nM. Besides, the 50% growth inhibitory concentration (GI50) in assay [6] came out at 41 nM; in [7] (setting [22]), 28 nM; in assay [7] (setting [23]) it was 20 nM; in assay [8] (setting [24]), 3 nM; in assay [9] (setting [25]), 170 nM; in assay [9] (setting [26]) it was 170 nM. Also, the figures for the GI50 in assay [10] (setting [27]), in [11] (setting [28]) and in assay [11] (setting [29]) were 7 nM, 25 nM and 20 nM, respectively.
In the case of `C/C=C1\NC(=O)c2cc(SC)cc(n2)CNC(=O)C[C@@H](/C=C/CCSC(C)=O)OC(=O)[C@H](CC)NC1=O` [Compound 178], the IC50 on HDAC2 was 26 nM; against HDAC11 it was 99 nM. In addition, the GI50 in assay [1] (setting [19]) is 30 nM; in [2] it was 58 nM; in assay [3] (setting [30]), 20 nM; in [4] it was 89 nM; in assay [5], 32 nM; in [6] it was 53 nM. The GI50 in assay [7] (setting [23]) was 30 nM; in assay [8] (setting [31]) it was 50 nM; in [9] (setting [26]), 350 nM; in [10] (setting [32]), 90 nM; in [11] (setting [29]), 50 nM.
On to `C/C=C1\NC(=O)c2nc(ccc2SC)CNC(=O)C[C@@H](/C=C/CCSC(=O)CCCCCCC)OC(=O)[C@H](CC)NC1=O` [Compound 171], for which the figures for the IC50 on HDAC2 and against HDAC11 were 35 nM and 95 nM, respectively. The GI50 in assay [1] (setting [19]) was determined as 50 nM; in assay [2], 38 nM; in assay [3] (setting [30]), 10 nM; in [4] it was 71 nM; in [5], 23 nM; in assay [6] it was 46 nM. The GI50 in [7] (setting [23]) was 10 nM; in assay [8] (setting [31]), 20 nM; in assay [9] (setting [26]) it was 10 nM; in [10] (setting [32]) it was 20 nM; in assay [11] (setting [29]), 50 nM.
In the case of `C=C1NC(=O)c2cc(SC)cc(n2)CNC(=O)C[C@@H](/C=C/CCSC(C)=O)OC(=O)[C@H](C(C)C)NC1=O` [Compound 205], the 50% inhibitory concentration (IC50) at HDAC2 turned out to be 52 nM; at HDAC11, 77 nM. The GI50 in assay [1] (setting [19]) came to 50 nM; in assay [2] it was 56 nM; in assay [3] (setting [30]), 60 nM; in assay [4] it was 64 nM; in [5], 62 nM; in [6], 53 nM. The GI50 in assay [7] (setting [23]) stood at 70 nM; in [8] (setting [31]) it was 50 nM; in assay [9] (setting [26]) it was 30 nM; in [10] (setting [32]), 40 nM; in [11] (setting [29]) it was 60 nM.
Regarding `C/C=C1\NC(=O)c2cccc(n2)CNC(=O)C[C@@H](/C=C/CCSC(=O)CCCCCCC)OC(=O)[C@H](C)NC1=O` [Compound 11], the IC50 is 55 nM on HDAC2 and 81 nM at HDAC11 (setting [33]). Also, the GI50 was found to be 430 nM in [1] (setting [12]); 430 nM in assay [1] (setting [20]); 76 nM in assay [2]; 30 nM in [3] (setting [13]); 33 nM in [3] (setting [21]); 42 nM in [4]. Moreover, the GI50 in assay [5] was found to be 23 nM; in assay [6], 63 nM; in [7] (setting [14]) it was 50 nM; in assay [7] (setting [22]), 50 nM; in [8] (setting [15]), 10 nM; in [8] (setting [24]) it was 17 nM. Moreover, the GI50 worked out at 60 nM in assay [9] (setting [16]); 60 nM in assay [9] (setting [25]); 30 nM in assay [10] (setting [17]); 35 nM in assay [10] (setting [27]); 20 nM in [11] (setting [18]); 25 nM in assay [11] (setting [28]).
As to `C/C=C1\NC(=O)c2nc(ccc2F)CNC(=O)C[C@@H](/C=C/CCSC(=O)CCCCCC)OC(=O)[C@H](C(C)C)NC1=O` [Compound 33], the IC50 worked out at 43 nM at HDAC2 and 89 nM at HDAC11 (setting [33]). In addition, the GI50 in assay [1] (setting [12]) was 50 nM; in [2], 83 nM; in assay [3] (setting [13]), 10 nM; in assay [4], 26 nM; in assay [5] it was 83 nM; in assay [6], 16 nM. Further, the GI50 in [7] (setting [14]) is 50 nM; in [8] (setting [15]), 30 nM; in [9] (setting [16]) it was 80 nM; in [10] (setting [17]) it was 20 nM; in assay [11] (setting [18]), 30 nM.
`C/C=C1\NC(=O)c2cc(F)cc(n2)CCNC(=O)C[C@@H](/C=C/CCSC(C)=O)OC(=O)[C@H](C(C)C)NC1=O` [Compound 104]: the IC50 is 26 nM at HDAC2 and 83 nM against HDAC11. Further, the GI50 in [1] (setting [12]) worked out at 50 nM; in assay [2] it was 57 nM; in [3] (setting [13]) it was 40 nM; in assay [4], 38 nM; in assay [5], 49 nM; in [6], 33 nM. In addition, the GI50 in assay [7] (setting [14]) turned out to be 20 nM; in [8] (setting [15]), 30 nM; in assay [9] (setting [16]), 90 nM; in assay [10] (setting [17]) it was 50 nM; in assay [11] (setting [18]), 30 nM.
With `C/C=C1\NC(=O)c2cccc(n2)CNC(=O)C[C@@H](/C=C/CCSC(C)=O)OC(=O)[C@H](Cc2cccc3ccccc23)NC1=O` [Compound 17], the IC50 against HDAC2 was 61 nM; on HDAC11 (setting [33]) it was 97 nM. For the same compound, the GI50 turned out to be 1930 nM in assay [1] (setting [12]); 92 nM in assay [2]; 5220 nM in [3] (setting [13]); 42 nM in [4]; 43 nM in [5]; 32 nM in assay [6]. Moreover, the GI50 came to 22000 nM in assay [7] (setting [14]); 920 nM in assay [8] (setting [15]); 23300 nM in assay [9] (setting [16]); 20100 nM in [10] (setting [17]); 530 nM in assay [11] (setting [18]).
